This note sets out measurements from ChEMBL document CHEMBL1201862, “PubChem BioAssay data set” (2004).

The source made the active and inactive calls. Rule as the data show it, for most assays here: actives have a measured EC50 and inactives only a lower limit.

In general, EC50 refers to the concentration at which the effect is half-maximal. For orientation: AC50 means the midpoint of the concentration-response curve, whichever way the signal moves.

For test [1], the target named is T1, Heat shock factor protein 1 (Mus musculus, UniProt P38532).
T1 sequence (P38532 whole entry): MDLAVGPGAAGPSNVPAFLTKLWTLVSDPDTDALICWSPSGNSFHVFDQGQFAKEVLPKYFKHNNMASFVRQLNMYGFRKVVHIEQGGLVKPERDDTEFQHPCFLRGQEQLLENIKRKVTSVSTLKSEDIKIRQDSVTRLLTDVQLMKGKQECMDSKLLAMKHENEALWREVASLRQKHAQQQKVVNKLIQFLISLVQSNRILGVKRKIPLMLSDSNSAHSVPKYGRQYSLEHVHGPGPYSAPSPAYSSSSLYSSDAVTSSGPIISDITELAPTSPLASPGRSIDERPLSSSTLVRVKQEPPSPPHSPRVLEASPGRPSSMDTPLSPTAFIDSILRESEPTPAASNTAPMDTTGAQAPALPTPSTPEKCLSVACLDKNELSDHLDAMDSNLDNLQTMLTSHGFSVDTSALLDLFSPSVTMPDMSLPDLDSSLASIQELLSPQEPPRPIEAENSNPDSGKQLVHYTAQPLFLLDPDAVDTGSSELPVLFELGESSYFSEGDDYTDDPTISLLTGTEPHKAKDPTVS
Put plainly: decrease of HSF1-responsive luciferase luminescence – cell-based, NIH3T3, dose retest, confirmation (AID 2382).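 Also: NIH3T3 fibroblasts with HSF1-driven luciferase reporter stressed by proteasome inhibitor MG132; luminescence from HSF1-driven luciferase expression after 8 hours of MG132 stress.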 Type of test: functional.

In test [2] the target is T2, Replicative DNA helicase DnaB (Mycobacterium tuberculosis, UniProt P9WMR3).
T2 sequence (P9WMR3 whole entry): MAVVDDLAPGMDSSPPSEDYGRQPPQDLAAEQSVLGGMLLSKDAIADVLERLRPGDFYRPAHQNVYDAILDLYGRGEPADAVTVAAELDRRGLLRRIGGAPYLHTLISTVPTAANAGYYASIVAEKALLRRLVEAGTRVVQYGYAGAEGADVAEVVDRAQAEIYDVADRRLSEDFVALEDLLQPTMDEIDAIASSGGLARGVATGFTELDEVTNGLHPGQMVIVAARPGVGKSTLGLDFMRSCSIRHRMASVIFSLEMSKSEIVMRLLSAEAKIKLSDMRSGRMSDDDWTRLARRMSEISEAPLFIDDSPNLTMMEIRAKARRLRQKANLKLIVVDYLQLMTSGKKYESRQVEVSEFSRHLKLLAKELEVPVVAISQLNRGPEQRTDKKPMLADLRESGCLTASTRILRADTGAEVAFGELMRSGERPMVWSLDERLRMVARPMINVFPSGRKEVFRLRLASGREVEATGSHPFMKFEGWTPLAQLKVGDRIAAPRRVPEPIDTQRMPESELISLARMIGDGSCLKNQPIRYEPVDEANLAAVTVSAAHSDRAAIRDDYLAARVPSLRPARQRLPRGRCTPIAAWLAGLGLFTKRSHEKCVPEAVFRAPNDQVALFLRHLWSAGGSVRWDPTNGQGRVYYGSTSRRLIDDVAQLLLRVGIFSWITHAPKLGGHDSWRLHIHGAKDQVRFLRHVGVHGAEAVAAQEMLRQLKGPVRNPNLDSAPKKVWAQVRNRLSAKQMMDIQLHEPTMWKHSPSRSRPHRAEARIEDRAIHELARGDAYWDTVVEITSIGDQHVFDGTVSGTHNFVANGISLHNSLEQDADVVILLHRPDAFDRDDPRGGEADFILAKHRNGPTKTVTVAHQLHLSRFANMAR
Kind of test: DnaB intein splicing inhibitors, dose response, biochemical, cell-free fluorescence (AID 449749). Type of test: functional.

Test [3] concerns the target T3, Protein RecA (Mycobacterium tuberculosis, UniProt P9WHJ3).
T3 sequence (P9WHJ3 whole entry): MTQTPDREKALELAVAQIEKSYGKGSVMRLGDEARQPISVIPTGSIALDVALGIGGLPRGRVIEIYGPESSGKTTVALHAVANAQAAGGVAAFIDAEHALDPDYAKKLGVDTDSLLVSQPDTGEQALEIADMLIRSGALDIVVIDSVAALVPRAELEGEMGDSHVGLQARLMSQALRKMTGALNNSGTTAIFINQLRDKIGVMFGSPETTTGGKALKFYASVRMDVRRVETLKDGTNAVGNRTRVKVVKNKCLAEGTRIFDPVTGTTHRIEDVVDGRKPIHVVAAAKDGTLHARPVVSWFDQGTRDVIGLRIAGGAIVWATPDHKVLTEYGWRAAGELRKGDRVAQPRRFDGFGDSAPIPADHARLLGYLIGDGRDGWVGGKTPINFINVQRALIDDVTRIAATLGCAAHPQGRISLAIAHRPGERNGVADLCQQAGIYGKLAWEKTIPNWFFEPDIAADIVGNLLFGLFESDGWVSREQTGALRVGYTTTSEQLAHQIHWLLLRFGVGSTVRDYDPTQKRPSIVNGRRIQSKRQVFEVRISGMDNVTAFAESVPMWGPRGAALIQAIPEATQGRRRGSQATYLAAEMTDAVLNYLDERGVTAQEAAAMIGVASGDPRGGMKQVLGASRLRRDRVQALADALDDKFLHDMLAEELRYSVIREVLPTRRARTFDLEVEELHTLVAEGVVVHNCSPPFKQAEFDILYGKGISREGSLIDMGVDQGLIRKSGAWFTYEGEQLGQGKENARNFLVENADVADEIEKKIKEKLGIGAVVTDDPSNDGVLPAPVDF
Kind of test: Fluorescence Cell-Free Homogeneous Dose Retest to Identify Inhibitors of RecA-Intein Splicing Activity. [Related pubchem assays (depositor defined):AID2097, AID2223, AID489010, AID492950]. Type of test: functional.

For test [4], the target named is T4, Cytochrome P450 1A2 (Homo sapiens, UniProt P05177).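 Also: PubChem cytochrome P450 panel assay, CYP1A2 panel member.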
T4 sequence (P05177 whole entry): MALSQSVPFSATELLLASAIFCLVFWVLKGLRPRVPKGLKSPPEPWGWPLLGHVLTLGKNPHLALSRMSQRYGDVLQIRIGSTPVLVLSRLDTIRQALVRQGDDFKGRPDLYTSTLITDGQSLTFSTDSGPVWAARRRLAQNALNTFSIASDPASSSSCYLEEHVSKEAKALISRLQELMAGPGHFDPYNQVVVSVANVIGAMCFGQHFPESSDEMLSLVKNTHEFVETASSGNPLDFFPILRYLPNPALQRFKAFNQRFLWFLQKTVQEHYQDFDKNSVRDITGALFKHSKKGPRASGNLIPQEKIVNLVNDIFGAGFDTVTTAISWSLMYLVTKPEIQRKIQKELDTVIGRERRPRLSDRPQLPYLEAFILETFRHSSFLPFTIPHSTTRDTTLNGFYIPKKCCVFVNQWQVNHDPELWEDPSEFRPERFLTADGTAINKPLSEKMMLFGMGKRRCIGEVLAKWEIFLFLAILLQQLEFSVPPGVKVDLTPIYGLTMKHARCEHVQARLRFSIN

Test [5] addresses Luciferin 4-monooxygenase (Photinus pyralis, UniProt P08659). Put plainly: inhibition of purified Photinus pyralis luciferase – biochemical, luminescence, dose response (AID 1891).
The nature of test [6]: Luminescence Cell-Based Dose Confirmation HTS to Identify Inhibitors of Platelet Dense Granule Release. [Related pubchem assays: 1663 (Primary HTS), 1678 (Summary of Project)]. It is filed as functional.
For test [7], the system named is INS1. Put plainly: INS-1E survival protection against cytokine death – cell-based, luminescence, retest, dose response (AID 449756).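 Also: cell death triggered by IL-1 beta plus TNF-alpha plus IFN-gamma mixture; protective hits raise ATP signal compared with cytokine alone wells.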 Type of test: functional. As to conditions: Rattus norvegicus.
Test [8] in a line: Trypanosoma cruzi growth suppression in host cells – NIH3T3 host cells, beta-gal luminescence, confirmation (AID 2044).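 Also: intracellular parasites grown in NIH/3T3 mouse fibroblasts as host cells; luminescent beta-galactosidase reporter signal from transgenic T. cruzi replicating inside host cells; inhibitors lower the luminescence signal.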 It is filed as functional, cell-based.
The nature of test [9]: NIH3T3 cell viability loss – ATP luminescence, mouse fibroblasts, counter-screen, dose response (AID 2010).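 Also: cells exposed to compound for about 90 hours before reading.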 It is filed as functional, cell-based. On the technique in general: Counterscreens check selectivity or assay interference.
Test [10] can be described thus: Luminescence Cell-Based Dose Retest to Confirm Inhibitors of Cancer Stem Cells. [Related pubchem assays (depositor defined):AID2717, AID2721]. It is filed as functional. As to conditions: Homo sapiens.

Chain of Luciferin 4-monooxygenase (P08659 whole entry): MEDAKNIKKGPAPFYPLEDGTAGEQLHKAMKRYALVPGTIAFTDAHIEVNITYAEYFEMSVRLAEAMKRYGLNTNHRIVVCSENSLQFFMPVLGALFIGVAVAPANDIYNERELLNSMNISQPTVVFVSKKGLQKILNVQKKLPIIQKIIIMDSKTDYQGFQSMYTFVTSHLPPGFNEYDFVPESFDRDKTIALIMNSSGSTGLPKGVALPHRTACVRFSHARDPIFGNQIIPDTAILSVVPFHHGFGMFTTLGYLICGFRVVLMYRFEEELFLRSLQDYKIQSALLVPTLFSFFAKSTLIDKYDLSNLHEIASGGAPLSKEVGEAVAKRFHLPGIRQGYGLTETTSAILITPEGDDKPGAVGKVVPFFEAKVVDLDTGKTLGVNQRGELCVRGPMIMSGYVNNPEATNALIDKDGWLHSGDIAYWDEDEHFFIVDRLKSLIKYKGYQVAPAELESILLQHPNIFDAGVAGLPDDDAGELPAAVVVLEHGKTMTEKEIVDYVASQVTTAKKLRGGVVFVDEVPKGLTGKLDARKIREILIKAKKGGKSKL

For `CC(=O)c1c(C)n(CCCOC(C)C)c2ccc(O)cc12`, in [1], the EC50 is reported as > 195 µM (not active).
For the molecule `Cc1ccc(N2C(=O)C(Cl)=C(N3CCOCC3)C2=O)c(C)c1`, the AC50 in [2] is 16 µM (active). Further, the EC50 in test [3] was 4.19 µM (active).
For `COc1ccc2nc(SCC(=O)NN)cc(C)c2c1`, the concentration at half-maximal activity (AC50) is 50.5 µM (active) in [2] and 0.398 µM (inconclusive) in test [4]. In addition, the EC50 in test [3] was 10.6 µM (active).
On to `CCOC(=O)CN1C(=O)S/C(=C/c2cc(C)n(C)c2C)C1=O`, for which the EC50 in test [1] is on record as > 195 µM (not active).
With `O=C(CSC1=NCCS1)Nc1nc(-c2ccccc2)cs1`, the AC50 in [2] was > 380 µM (inconclusive). In test [3], the EC50 is 7.45 µM (active).
Turning to `O=C(CNC(=O)C1COc2ccccc2O1)N/N=C\c1ccccc1Cl` (centres undefined), in [2], the AC50 was 189 µM (active). The EC50 in [3] was > 380 µM (inactive).
On to `CC(C)Cn1c(N2CCN(C(=O)/C=C/c3ccccc3)CC2)nc2ccccc21`, for which, in [1], the EC50 is on record as > 195 µM (not active).
Consider `CC(Oc1ccccc1Cl)C(=O)Nc1ccc(S(=O)(=O)N2CCCC2)cc1` (centres undefined), for which the EC50 is 32 µM (active) in test [5] and > 112 µM (not active) in [6].
For `Cc1cc(C)nc(NC(=O)c2ccc(C)c([N+](=O)[O-])c2)n1`, the EC50 in test [1] is given as > 195 µM (not active).
As to `CCN(CC(=O)Nc1ccccc1OC)C(=O)Cn1cnc2ccccc2c1=O`, the EC50 in test [5] and in test [6] was > 112 µM (not active) throughout.
With `COc1ccc(-n2cc([N+](=O)[O-])c(=O)c3ccc(Cl)cc32)cc1`, in test [1], the EC50 is listed as > 195 µM (not active).
In the case of `COc1ccc(CN=C(S)NNC(=O)c2cc3ccccc3o2)cc1`, the EC50 in test [5] and in test [6] was > 112 µM (not active) in each case.
`CCc1c(C)nc2ccc(C)cc2c1O`: the 50% effective concentration (EC50) in [1] is > 195 µM (not active).
Regarding `Cc1cc(NC(=O)c2c(Cl)cccc2Cl)no1`, the EC50 in test [5] and in test [6] was > 112 µM (not active) each time.
On to `Cc1noc(C)c1CSCC(=O)Oc1ccc(N(C)S(=O)(=O)c2ccc(Cl)cc2)cc1`, for which the concentration at half-maximal activity (AC50) in test [2] was 2.34 µM (active). The EC50 in test [3] was 13.8 µM (active).
On to `O=C(O)/C=C/C(=O)Nc1cc(F)ccc1F`, for which, in test [1], the EC50 was 35.9 µM (active).
As to `Cc1cccc(NC(=O)C2CCCN(C(=O)NC3CCCCC3)C2)c1C` (centres undefined), the EC50 in test [5] and in test [6] was > 112 µM (not active) throughout.
As to `S=C(NCCc1ccccc1)N1CCN(Cc2ccc(Cl)c(Cl)c2)CC1`, the EC50 in test [1] is listed as > 195 µM (not active).
Take `CC1COc2ccccc2N1C(=O)c1ccc(F)cc1` (centres undefined): the 50% effective concentration (EC50) in test [1] was > 195 µM (not active).
As to `CCOC(=O)c1cc(C#N)c(NCc2ccccc2)nc1C`, in test [1], the EC50 was > 195 µM (not active).
As for `N=C(NOC(=O)c1ccc(Cl)cc1Cl)c1ccccn1`, the EC50 was 1.05 µM (active) in test [5] and 3.11 µM (active) in [6]. Further, in test [7], the AC50 was 30 µM (active).
With `Cc1ccc(NS(=O)(=O)c2ccc(Cl)c(C(=O)Nc3ccccc3-c3nc4ccccc4[nH]3)c2)cc1C`, the EC50 in test [5] was > 112 µM (not active); in test [6], > 112 µM (not active); in test [8] it was 2.49 µM (active); in test [9], < 6 µM (inconclusive). Moreover, the AC50 in test [10] is 0.647 µM (active).
With `Cc1[nH]n(C(C)(C)C)c(=O)c1Sc1ccccc1`, the AC50 in test [2] was 19.1 µM (active). Besides, in test [3], the EC50 was 2.02 µM (active).
As for `COc1cc2sc3ccc(C#CC4(O)CCCCC4)cc3c(=O)c2cc1OC`, the EC50 was 2.35 µM (active) in test [5] and 4.69 µM (active) in [6].
As for `O=C(CCNc1cccc(F)c1)c1cccc([N+](=O)[O-])c1`, the AC50 in test [2] was > 380 µM (inactive). The EC50 in test [3] was > 380 µM (inactive).
`CCOC(=S)SCC(=O)Nc1nccs1`: the EC50 in test [5] was > 112 µM (not active); in [6] it was 21.6 µM (active).
On to `CCOC(=O)c1c(C)[nH]c(C(=O)C(C)OC(=O)c2oc3ccccc3c2COC)c1C` (centres undefined), for which the EC50 in [5] was > 112 µM (not active); in [6] it was 5.48 µM (active).
